Laboratory results as given in patent US20240083981A1, “TREATMENT OF HERPES SIMPLEX VIRUS INFECTION” (priority 2022, published 2024).

How the values were obtained:
clinical HSV-1 isolates = assay: Inhibition of clinically derived HSV-1 isolates in Vero cells, cell viability assay; assay type: cell-based; settings: US origin
Experimental: Four American isolates (HSV-1 Bethesda and HSV-1 RH; HSV-2 Bethesda and HSV-2 RH), 3 Asian isolates (HSV-2 JA-1, HSV-2 JA-2, and HSV-2 JA-3), and 4 isolates with ACV resistance (poly-mut, C7, C8, and IC) were investigated via a cell viability assay. […] Then, the mixtures were aliquoted into a 96-well plate seeded with Vero cells. After incubation for 48 hours at 37° C., the plate was washed with PBS once, and the viable cells were incubated with 1% Alamar blue for 1 hour.

HSV-2 333 TKnull = assay: microbe, parasite or virus in culture; settings: Human alphaherpesvirus 2, Vero, 24 h
HSV-1 RE TKnull = assay: microbe, parasite or virus in culture; settings: Human alphaherpesvirus 1, Vero, 24 h
[1] = Human alphaherpesvirus 1, Vero, HSV-1 RH

## Nc1nc2c(ncn2COCCO)c(=O)[nH]1 [ACV, acyclovir]
Clinical HSV-1 isolates; HSV-1 Bethesda
  IC90: > 35.5 µM
Clinical HSV-1 isolates; Human alphaherpesvirus 1, Vero, HSV-1 Bethesda
  IC50: 3.62 µM
Clinical HSV-1 isolates; [1]
  IC50: 4.73 µM
  IC90: > 35.5 µM
HSV-2 333 TKnull
  IC50: > 0.1 µM
HSV-1 RE TKnull
  IC50: > 0.1 µM
